Data from ChEMBL document CHEMBL1141727, “Isolation and cytotoxic evaluation of marine sponge-derived norterpene peroxides” (J Nat Prod, 1998).

What was measured:
Type in all cases: functional
OVCAR-4 = experiment: Growth inhibition of human OVCAR4 cells
KM12 = experiment: Growth inhibition of human KM12 cells
[1] = Growth inhibition of human H116 cells assessed as zone units at 50 ug/disk by disk diffusion agar colony formation assay
SR = experiment: Growth inhibition of human SR cells
A498 = experiment: Growth inhibition of human A498 cells
PO3 = experiment: Growth inhibition of mouse PO3 cells assessed as zone units at 50 ug/disk by disk diffusion agar colony formation assay
DU-145 = experiment: Growth inhibition of human DU145 cells
UACC-62 = experiment: Growth inhibition of human UACC62 cells
HCT-116 = experiment: Growth inhibition of human HCT116 cells
Malme-3M = experiment: Growth inhibition of human MALME-3M cells
[2] = Growth inhibition of human MCF7/ADR resistant cells; settings: NCI/ADR-RES
OVCAR-5 = experiment: Growth inhibition of human OVCAR5 cells
HOP-62 = experiment: Growth inhibition of human HOP62 cells
U-251 = experiment: Growth inhibition of human U251 cells
OVCAR-3 = experiment: Growth inhibition of human OVCAR-3 cells
SNB-19 = experiment: Growth inhibition of human SNB19 cells
COLO 205 = experiment: Growth inhibition of human COLO205 cells
NCI-H460 = experiment: Growth inhibition of human NCI-H460 cells
MDA-MB-435 = experiment: Growth inhibition of human MDA-MB-435 cells
786-0 = experiment: Growth inhibition of human 786-0 cells
ACHN = experiment: Growth inhibition of human ACHN cells
MCF7 = experiment: Growth inhibition of human MCF7 cells
M14 = experiment: Growth inhibition of human M14 cells
IGROV-1 = experiment: Growth inhibition of human IGROV1 cells
SK-MEL-5 = experiment: Growth inhibition of human SK-MEL-5 cells
MDA-N = experiment: Growth inhibition of human MDA-N cells
SK-OV-3 = experiment: Growth inhibition of human SKOV3 cells
SN12C = experiment: Growth inhibition of human SN12C cells
[3] = Growth inhibition of human Hs 578T cells
NCI-H23 = experiment: Growth inhibition of human NCI-H23 cells
CAKI-1 = experiment: Growth inhibition of human Caki1 cells
SK-MEL-28 = experiment: Growth inhibition of human SK-MEL-28 cells
SNB-75 = experiment: Growth inhibition of human SNB75 cells
L1210 = experiment: Growth inhibition of mouse L1210 cells assessed as zone units at 50 ug/disk by disk diffusion agar colony formation assay
HL-60(TB) = experiment: Growth inhibition of human HL-60(TB) cells
NCI-H522 = experiment: Growth inhibition of human NCI-H522 cells
CCRF-CEM = experiment: Growth inhibition of human CCRF-CEM cells
MDA-MB-231 = experiment: Growth inhibition of human MDA-MB-231 cells
A549 = experiment: Growth inhibition of human A549 cells
SF-539 = experiment: Growth inhibition of human SF539 cells
HCT-15 = experiment: Growth inhibition of human HCT15 cells
HOP-92 = experiment: Growth inhibition of human HOP92 cells
NCI-H226 = experiment: Growth inhibition of human NCI-H226 cells
NCI-H322M = experiment: Growth inhibition of human NCI-H322M cells
SK-MEL-2 = experiment: Growth inhibition of human SK-MEL-2 cells
[4] = Growth inhibition of human […] cells
HT-29 = experiment: Growth inhibition of human HT-29 cells
RXF 393 = experiment: Growth inhibition of human […] cells
[5] = Growth inhibition of mouse M17/ADR cells assessed as zone units at 50 ug/disk by disk diffusion agar colony formation assay
MOLT-4 = experiment: Growth inhibition of human MOLT4 cells
UO-31 = experiment: Growth inhibition of human UO31 cells
OVCAR-8 = experiment: Growth inhibition of human OVCAR8 cells
SW-620 = experiment: Growth inhibition of human SW620 cells
P388 = experiment: Growth inhibition of mouse P388 cells assessed as zone units at 50 ug/disk by disk diffusion agar colony formation assay
BT-549 = experiment: Growth inhibition of human BT549 cells
SF-295 = experiment: Growth inhibition of human SF295 cells
T47D = experiment: Growth inhibition of human T47D cells
EKVX = experiment: Growth inhibition of human EKVX cells
UACC-257 = experiment: Growth inhibition of human UACC257 cells
HCC 2998 = experiment: Growth inhibition of human HCC2998 cells

With CC(=O)CC/C=C(\C)CCC1=C(C)CCCC1(C)C the GI50 (OVCAR-4) was over 15 µM, the GI50 (KM12) was 8.61 µM and the Activity [1] was 30 Zone units. For the same compound, the GI50 (SR) was 4.94 µM, the GI50 (A498) was over 15 µM and the Activity (PO3) was 40 Zone units. It also gave a GI50 (DU-145) of over 15 µM, a GI50 (UACC-62) of over 15 µM and a GI50 (HCT-116) of over 15 µM. The GI50 (Malme-3M) was over 15 µM, the GI50 [2] was over 15 µM and the GI50 (OVCAR-5) was over 15 µM. The GI50 (HOP-62) was over 15 µM, the GI50 (U-251) was over 15 µM and the GI50 (OVCAR-3) was over 15 µM. For the same compound, the GI50 (SNB-19) was under 0.0015 µM, the GI50 (COLO 205) was over 15 µM and the GI50 (NCI-H460) was over 15 µM. It also gave a GI50 (MDA-MB-435) of over 15 µM, a GI50 (786-0) of over 15 µM and a GI50 (ACHN) of over 15 µM. For the same compound, the GI50 (MCF7) was over 15 µM, the GI50 (M14) was under 0.0015 µM and the GI50 (IGROV-1) was 9.53 µM. It also gave a GI50 (SK-MEL-5) of over 15 µM, a GI50 (MDA-N) of over 15 µM and a GI50 (SK-OV-3) of over 15 µM. The GI50 (SN12C) was 9.48 µM, the GI50 [3] was 1.86 µM and the GI50 (NCI-H23) was over 15 µM. For the same compound, the GI50 (CAKI-1) was over 15 µM, the GI50 (SK-MEL-28) was over 15 µM and the GI50 (SNB-75) was 5.15 µM. The Activity (L1210) was 60 Zone units, the GI50 (HL-60(TB)) was 2.88 µM and the GI50 (NCI-H522) was over 15 µM. For the same compound, the GI50 (CCRF-CEM) was 2.94 µM, the GI50 (MDA-MB-231) was over 15 µM and the GI50 (A549) was over 15 µM. The GI50 (SF-539) was over 15 µM, the GI50 (HCT-15) was over 15 µM and the GI50 (HOP-92) was over 15 µM. For the same compound, the GI50 (NCI-H226) was over 15 µM, the GI50 (NCI-H322M) was over 15 µM and the GI50 (SK-MEL-2) was over 15 µM. The GI50 [4] was over 15 µM, the GI50 (HT-29) was over 15 µM and the GI50 (RXF 393) was over 15 µM. For the same compound, the Activity [5] was 0 Zone units, the GI50 (MOLT-4) was 2.08 µM and the GI50 (UO-31) was over 15 µM. For the same compound, the GI50 (OVCAR-8) was over 15 µM, the GI50 (SW-620) was 6.34 µM and the Activity (P388) was 60 Zone units. The GI50 (BT-549) was over 15 µM, the GI50 (SF-295) was over 15 µM and the GI50 (T47D) was over 15 µM. The GI50 (EKVX) was over 15 µM, the GI50 (UACC-257) was over 15 µM and the GI50 (HCC 2998) was over 15 µM.
